This experiment concerns the target T1, human mGluR2 (Homo sapiens, UniProt Q14416).
T1 construct: If the GTPgammaS assay gave them: nothing
The experiment can be described thus: mGluR2 allosteric activator assays described herein (FLIPR calcium mobilization in HEK 293 mGluR2/CaR cells; [35S]-GTPγS binding with CHO membranes). The format is cell-based. Particulars: potentiator / positive allosteric modulator activity at mGluR2; the patent does not say which of the two described assays (FLIPR or GTPγS). The text has this: The pharmacological properties of the compounds of the invention can be analyzed using standard assays for functional activity. Examples of glutamate receptor assays are well known in the art as described in, for example, Aramori et al., 1992, Neuron, 8:757; Tanabe et al., 1992, Neuron, 8:169; Miller et al., 1995, J. Neuroscience, 15:6103; Balazs, et al., 1997, J. Neurochemistry, 1997, 69:151. The methodology described in these publications is incorporated herein by reference. Conveniently, the compounds of the invention can be studied by means of an assay that measures the mobilization of intracellular calcium, [Ca^2+]i in cells expressing mGluR2.
Fluorometric Imaging Plate Reader (FLIPR) analysis was used to detect allosteric activators of mGluR2 via calcium mobilization. […]
FLIPR experiments were done using a laser setting of 0.8 W and a 0.4 second CCD camera shutter speed. […] An addition of test compound (0.01 μM to 30 μM in duplicate) was made after 10 seconds of baseline fluorescent readings were recorded on FLIPR. Fluorescent signals were then recorded for an additional 75 seconds at which point a second addition of DCG-IV (0.2 μM) was made and fluorescent signals were recorded for an additional 65 seconds. Fluorescent signals were measured as the peak height of the response within the sample period. […]
(A change in cytosolic calcium serves as a functional read-out for many receptors and channels.)

For orientation: EC50 means the concentration at which the effect is half-maximal.

T1 sequence (Q14416 19-819 limits assumed): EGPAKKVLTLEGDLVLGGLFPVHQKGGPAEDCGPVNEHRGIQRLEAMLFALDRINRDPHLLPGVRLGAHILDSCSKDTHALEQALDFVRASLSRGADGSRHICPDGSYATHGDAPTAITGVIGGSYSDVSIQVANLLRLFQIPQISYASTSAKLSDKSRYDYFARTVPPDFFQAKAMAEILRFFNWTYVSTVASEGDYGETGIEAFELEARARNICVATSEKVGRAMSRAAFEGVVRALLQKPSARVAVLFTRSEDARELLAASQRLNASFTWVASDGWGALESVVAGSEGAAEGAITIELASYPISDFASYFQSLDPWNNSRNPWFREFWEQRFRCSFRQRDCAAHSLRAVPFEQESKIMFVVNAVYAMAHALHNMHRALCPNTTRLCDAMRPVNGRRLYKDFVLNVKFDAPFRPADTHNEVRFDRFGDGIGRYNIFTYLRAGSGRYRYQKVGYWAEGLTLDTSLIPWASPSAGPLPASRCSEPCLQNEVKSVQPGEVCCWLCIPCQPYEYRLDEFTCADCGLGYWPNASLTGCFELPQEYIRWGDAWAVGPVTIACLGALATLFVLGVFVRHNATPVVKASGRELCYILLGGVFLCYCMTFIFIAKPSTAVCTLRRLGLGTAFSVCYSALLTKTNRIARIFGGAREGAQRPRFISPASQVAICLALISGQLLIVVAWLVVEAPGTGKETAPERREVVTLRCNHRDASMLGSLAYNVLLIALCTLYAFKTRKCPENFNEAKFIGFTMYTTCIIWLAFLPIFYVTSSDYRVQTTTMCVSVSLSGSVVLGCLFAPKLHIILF

`O=C1CCn2c(CN3CCC(c4ccc(F)cc4)CC3)nc3cc(F)cc1c32` [Example 28.1, 8-Fluoro-2-[4-(4-fluoro-phenyl)-piperidin-1-ylmethyl]-4,5,9a,9b-tetrahydroimidazo[4,5,1-ij]quinolin-6-one]: the concentration for a half-maximal effect (EC50) worked out at 1110 nM.

(Values after US20080318999A1, “Tricyclic Benzimidazoles and Their Use as Metabotropic Glutamate Receptor Modulators” (priority 2005, published 2008).)
